The conditions of data set [1]: cited from earlier work; for SPF: commercial organic UV-filters, lower limit for commercial sunscreen 6.
The nature of data set [2]: NBT assay (superoxide anion scavenging, non-enzymatic NADH/PMS). Format: biochemical. On the procedure: Measurements of superoxide anion scavenging activity in 96-well microplates was based on the non-enzymatic method previously described with some modifications. The reaction mixture in the sample wells consisted of NADH (78 µM), nitro-blue tetrazolium (NBT) (50 µM), phenazine methosulfate (PMS) (10 µM), and lichen compounds (10, 20, 40, 80 µg/mL). The reagents were dissolved in 16 mM tris-hydrochloride buffer, at pH = 8 except for all the lichen compounds/extract which were dissolved in DMSO. After 5 min of incubation at room temperature, the spectrophotometric measurement was performed at 560 nm against blanks (without PMS nor sample).
(§1) For both assays, each concentration and all tests were done in triplicate and the results averaged. Ascorbic acid was used as a positive control. The percentage inhibition at steady state for each dilution was used to calculate the IC50 values. This gave the amount of antioxidant required (measured as the concentration of the stock solution added to the reaction mixture) to either scavenge 50% of O2^− or 50% of DPPH radicals: the lower the values, the higher the scavenging activity towards O2^−.

The nature of data set [3]: DPPH assay (reducing activity). In kind it is biochemical. The protocol:
Reducing activity of compounds 1–3 and crude extract on the 1,1′-diphenyl-2-picrylhydrazyl free radical (DPPH) and scavenging activity on superoxide anion were measured as previously described. Briefly, the scavenging activity of the lichen compounds on DPPH was measured using the Matsukawa method with some modifications. A reaction mixture containing 100 µL of DPPH (0.5 mM) in methanol and 10 µL of the lichen compound solutions in DMSO to give final concentrations of 19, 56, 167 and 500 µg/mL per well, was distributed in each microplate well. To allow results comparison and due to the presence of extract, concentrations are expressed in µg/mL. The absorbances were recorded at 540 nm after 30 min.
as §1
On the technique in general: Loss of DPPH colour is used to gauge radical scavenging.

Data set [4] has as its system HaCaT cells. As to the kind of experiment: Cytotoxic and photocytotoxic activities before and after UVA irradiation. Format: cell-based, human. Particulars: for IC50: Homo sapiens, light or radiation study, HaCaT cells; for Photo-Irritancy Factor (PIF), formal PIF: formal PIF = *1.0 = Cmax(−UV)/Cmax(+UV). The protocol:
Briefly, 100 µL per well of a cell suspension of HaCaT cells (ATCC) at 120,000 cells/mL were maintained in a RPMI culture medium with 5% of calf serum at 37 °C under 5% CO2 for 24 h for formation of monolayers. At t = 24 h, two 96-well plates per test chemical were preincubated for 1 h with seven different concentrations of the tested compounds and extract (ranging from 1 µg/mL to 200 µg/mL). Chlorpromazine was used as the positive control. To allow results comparison and due to the presence of extract, concentrations are expressed in µg/mL.
For both assays, each concentration and all tests were done in triplicate and the results averaged. The percentage inhibition at steady state for each dilution was used to calculate the IC50 values.

Data set [5] in a line: In vitro screening method for sun protection indexes (SPF, PF-UVA, λc, ISP, SUI) from UV absorbance 290–400 nm. Format: physicochemical. On the procedure:
Photoprotective effectiveness is evaluated through photoprotective indexes such as SPF, PF-UVA, and critical wavelength (λc) (an indicator of the filter capacity to protect in the UVA range), as well as Spectral Uniformity Index (SUI) and Ideal Spectral Profile (ISP), two indexes recently defined by Diffey to focus on protection across the entire ultraviolet spectrum. They calculate the goodness of fit of the spectral profile to the ideal flat profile. SPF and PF-UVA measure the filter efficacy against UVB or UVA. SPF measurement is currently determined in vivo through determination of the erythemal reaction on human volunteers. For economical and ethical reasons, many alternative in vitro methods have been developed to measure SPF and also PF-UVA, λc or SUI and ISP. Unfortunately, despite concerted efforts around the globe between different commissions, none of them guarantees a good correlation with in vivo measurements. Moreover, all these in vitro methods require an amount of active raw material generally ≥100 mg and prevent the evaluation of compounds in minute amounts. The photoprotective indexes have been then determined thanks to a new method (see SM) especially developed to cope with the low availability of the compounds. Twelve commercial organic UV-filters, the photoprotective indexes of which were published (Table S3 in SM), encompassing a 1–24 SPF range were used for the development. It can be noted that the SPF values of benzophenone-3 (oxybenzone), PEG-25 PABA, homosalate, polysilicone 15 and 4-Methylbenzylidene Camphor are under 6, the value commonly accepted as the lower limit for commercial sunscreen. However, the efficient value of commercialized emulsion can be explained by the formulation of several organic and mineral filters. The similarity of the results (r^2 = 0.98 for published SPF vs. herein SPF, see Figure S1 in SM) supported the new method validity. Routinely, ethylhexyl methoxycinnamate (OMC) was used as positive control. Based on the SPF, λc, PF-UVA, SUI and ISP values obtained with marketed organic filters and on their UV range protection (Table S3 in SM), a decision tree was built to categorize the filters (Figure 3). Considering the herein SPF values of the filters cited above (around 2), the first condition to select a candidate is SPF > 2. Restricted UVA or UVB filters can be discriminated through the λc value (>370 nm) and PF-UVA (>2) for UVA and SUI (>1.2) and ISP (<90) for UVB. A large spectral protection (UVA + UVB) could be evaluated by combining the four criteria.
A new in vitro screening method based on spectrophotometric data was used to evaluate sun protection indexes such as SPF, PF-UVA, the critical wavelength λc, ISP and SUI. Its development was first conducted in a cuvette using twelve commercial organic filters encompassing a large range of SPF values (1 < SPF < 25) and then transposed in a 96-wells plate. Following the International recommendations, maximal concentrations never overtook 10% whatever the commercial filters or the lichens extracts or compounds considered. This new method faces some product availability limitation, which is a common shortcoming for natural products or metabolites (see all development in SM).
The scheme of solution preparation to record the experimental values is depicted in Figure 9. The sample (S4) was prepared at 0.02 mg/mL from stock solutions of filter candidate (S2) and of emulsion (S1) (See emulsion preparation in SM) taking into account the maximal concentration. The experimental absorbances Aλ were recorded in the 290–400 nm range versus a blank solution (S3) in a cuvette with a double beam spectrophotometer or in a 96-wells plate filled with 180 µL of solution by well. […] The diagram is described for final volumes of 50 mL, 100 µL, 25 mL and 25 mL for S1, S2, S3 and S4 solutions, respectively. Smaller volumes can easily be prepared. Solutions S2 and S4 were prepared in duplicate. […]

The nature of data set [6]: Stability of photoprotection indexes after UVA or UVB irradiation. Format: physicochemical. Particulars: for photostability: UVA and UVB. On the procedure:
One hundred eighty microliters of solution in 96-well plates were irradiated by UVA (2 J/cm^2) or UVB ([…]). The absorbances were then recorded and photoprotective indexes were calculated as described above. The stability was evaluated by comparison between indexes described previously (Section 3.5.1) and obtained before and after irradiation. Two independently prepared solutions were studied and OMC was used as a positive control.

Data set [7] can be described thus: NBT antioxidant assay of compounds in combination (isobologram, combination index). In kind it is biochemical. The protocol: For each drug ratio (Tables S5 and S6 in SM), the antioxidant inhibition was evaluated as previously described (2.6.1).
The antagonistic, synergistic or additive effect of the combination depends on the combination index value (CI) (Equation (1)). […] (IC50)X is the value of the IC50 of compound X alone.
For both assays, each concentration and all tests were done in triplicate and the results averaged.

Data set [8] deals with HaCaT cells. The note with it: human. The protocol:
For each drug ratio (Tables S7 and S8 in SM), the cytotoxicity was evaluated as previously described (2.7.1).
For both assays, each concentration was done in triplicate and the results averaged.

Where [9] appears, read: with UVA irradiation, read-out: IC50 ± SD With Irradiation.
The mark [10] stands for this setting: without irradiation, read-out: IC50 ± SD Without Irradiation.
[11] abbreviates: before irradiation, new in vitro method.

Here are results for ten molecules from publication PMC6152234, “Specialized Metabolites of the Lichen Vulpicida pinastri Act as Photoprotective Agents” (Molecules : A Journal of Synthetic Chemistry and Natural …, 2017).

A word on the IC50: it is the concentration at which inhibition is half-maximal.

≈ marks a conversion by molar mass, not a printed value. Like-named read-outs stand apart in the source and are kept apart here. Marks after values point to notes of the source that are not given here. A value given as a limit tells only on which side of the number the result lay.

In the case of `Cc1ccc(/C=C2/C(=O)C3(C)CCC2C3(C)C)cc1` (stereo not shown) [4-Methylbenzylidene Camphor], the SPF entry in data set [1] is “under 6”.

With `O=C1O[C@H]([C@@H](O)CO)C(O)=C1O` [Ascorbic acid, reference compound], the “NBT Assay IC50 ± SD” value in data set [2] was found to be 3.0 ± 0.4 µg/mL. Besides, the “DPPH Assay IC50 ± SD” value in data set [3] worked out at 12.5 ± 0.5 µg/mL.

For the molecule `CN(C)CCCN1c2ccccc2Sc2ccc(Cl)cc21` [Chlorpromazine, reference compound], the IC50 in data set [4] (setting [9]) stood at 2.4 ± 0.3 µg/mL (≈ 7.53 µM); in data set [4] (setting [10]), 13.2 ± 1.7 µg/mL (≈ 41.4 µM). The “Photo-Irritancy Factor (PIF)” value in data set [4] (PIF = IC50(−UV)/IC50(+UV), PIF < 5 no phototoxic potential) is reported as 5.5 ^d.

For `CCCCC(CC)COC(=O)C=Cc1ccc(OC)cc1` (stereo not shown) [OMC, ethylhexyl methoxycinnamate, reference compound], in data set [5] (before irradiation), the “ISP (Ideal Spectral Profile)” value worked out at 105%, the PF-UVA came out at 1.6, the “SUI (Spectral Uniformity Index)” value was found to be 1.1 and the “critical wavelength (λc)” value worked out at 330 nm. Moreover, the SPF in data set [5] (setting [11]) was 10.4. The SPF in data set [5] (cuvette, dissolved in DMSO) came out at 10.1. Moreover, the SPF in data set [5] (cuvette, dissolved in THF) came out at 9.6. Further, in data set [6] (UVA or UVB irradiation), the “decrease in indexes after irradiation” value was found to be 25%.

As for `COC(=O)/C(=C1/OC(=O)C(c2ccc(OC)cc2)=C1O)c1ccccc1` [Pinastric acid, pinastric acid], the “NBT Assay IC50 ± SD” value in data set [2] stood at 70.0 ± 23.0 µg/mL. Moreover, the “DPPH Assay IC50 ± SD” value in data set [3] is given as 80.0 ± 8.0 µg/mL. For the same molecule, the “ISP (Ideal Spectral Profile)” value in data set [5] (before irradiation) turned out to be 61%. Also, in data set [5] (before irradiation), the PF-UVA is 1.8. In addition, the “SUI (Spectral Uniformity Index)” value in data set [5] (before irradiation) is 1.9. The “critical wavelength (λc)” value in data set [5] (before irradiation) stood at 386 nm. Further, in data set [5] (setting [11]), the SPF is reported as 4.1. In addition, the “Superoxide anion scavenging activity (% inhibition)” value in data set [7] (Table S7, pinastric acid alone 17.5 µg/mL) is 25.0%; in data set [7] (Table S7, pinastric acid alone 35.0 µg/mL), 37.0%; in data set [7] (Table S7, pinastric acid alone 52.5 µg/mL) it was 44.0%; in data set [7] (Table S7, pinastric acid alone 70.0 µg/mL), 50.0%. Further, the IC50 in data set [4] (setting [9]) and in data set [4] (setting [10]) was above 200 µg/mL in each case. Further, the “Photo-Irritancy Factor (PIF), formal PIF” value in data set [4] was “*1.0 ^c”. For the same molecule, in data set [6], the photostability result was “photostable in the UVA and UVB ranges”.

As for `COC(=O)/C(=C1/OC(=O)C(c2ccccc2)=C1O)c1ccccc1` [Vulpinic acid, vulpinic acid], the “NBT Assay IC50 ± SD” value in data set [2] turned out to be 30.0 ± 3.0 µg/mL. The Percentage of cytotoxicity in data set [8] (5 µg/mL) and in data set [8] (20 µg/mL) was 0.0% each time. Further, in data set [3], the “DPPH Assay IC50 ± SD” value amounted to 55.0 ± 8.0 µg/mL. In addition, in data set [5] (before irradiation), the “ISP (Ideal Spectral Profile)” value amounted to 19%. The molecule also registered a PF-UVA in data set [5] (before irradiation) of 3.9. Further, in data set [5] (before irradiation), the “SUI (Spectral Uniformity Index)” value was 7.6. Moreover, the “Superoxide anion scavenging activity (% inhibition)” value came out at 22.0% in data set [7] (Table S6, vulpinic acid alone 7.5 µg/mL); 30.0% in data set [7] (Table S6, vulpinic acid alone 15.0 µg/mL); 42.0% in data set [7] (Table S6, vulpinic acid alone 22.5 µg/mL); 50.0% in data set [7] (Table S6, vulpinic acid alone 30.0 µg/mL). The IC50 in data set [4] (setting [9]) and in data set [4] (setting [10]) was above 200 µg/mL in each case. Besides, the “Photo-Irritancy Factor (PIF), formal PIF” value in data set [4] is on record as “*1.0 ^c”. Also, in data set [6], the photostability result was “photostable in the UVA and UVB ranges”.

`CCCCC(CC)COc1ccc(-c2nc(-c3ccc(OC)cc3)nc(-c3ccc(OCC(CC)CCCC)cc3O)n2)c(O)c1` (stereo not shown) [anisotriazine, Bis-Ethylhexyloxyphenol Methoxytphenyl Triazine, reference compound]: in data set [1] (reference value, ref 6–8 of supplement), the “published SPF” value is given as 23.9. Besides, the SPF in data set [5] (cuvette, dissolved in DMSO) came to 1.8.

With `COc1ccc(C(=O)c2ccccc2)c(O)c1` [benzophenone-3 (oxybenzone), benzophenone-3], the SPF entry in data set [1] was “under 6”.

For the molecule `CC1CC(OC(=O)c2ccccc2O)CC(C)(C)C1` (stereo not shown) [homosalate], in data set [1], the SPF result was “under 6”.

Turning to PEG-25 PABA, the SPF entry in data set [1] is recorded as “under 6”.
